Assay results reported in patent publication US10807992B2, “Single enantiomer antiparasitic compounds” (priority 2017, dated 2020).
Read-outs that look alike come from different tables or passages of the source.

Assays:
[1] = test system: Ixodes scapularis; test: In vitro contact activity against adult ticks (coated vial), I. scapularis; conditions: for mortality at 0.006 µM: Trial 1, dose 0.006 μM; for mortality at 0.024 µM: Trial 1, dose 0.024 μM; for mortality at 0.098 µM: Trial 1, dose 0.098 μM; for mortality at 0.39 µM: Trial 1, dose 0.39 μM; for mortality at 1.56 µM: Trial 1, dose 1.56 μM; for mortality at 6.25 µM: Trial 1, dose 6.25 μM; for mortality at 25 µM: Trial 1, dose 25 μM; for mortality at 100 µM: Trial 1, dose 100 μM
Protocol: Rhipicephalus sanguineus, Dermacentor variabilis, Amblyomma americanum, (Ecto Services, Inc., Henderson, N.C.) and Ixodes scapularis (Oklahoma State University, Stillwater, Okla.) aged between 2-4 weeks post molt were held in an environmental chamber at 24° C., 80% humidity with 12-hour light/dark cycles.
For tick assays, vial caps were pre-drilled with a single hole in the center of each cap to allow air exchange. A filter paper (Whatman Grade 540 2.1 cm) was placed in the lid of each vial. An aliquot from each compound stock was added to an acetone/triton solution to achieve the desired top doses for the study. Serial dilutions were conducted from the top dose (i.e. 100 ppm) to achieve the desired titration range for EC50 and EC90 determination. For R. sanguineus, D. variabilis, and A. americanum, the final DMSO concentration in each test vial was 0.5%. For I. scapularis, compounds were solubilized directly in an acetone/triton solution due to I. scapularis' sensitivity to DMSO. A 459 μL aliquot of each compound formulation was transferred to a vial containing a Whatman Grade 540 2.1 cm filter paper. Vials were immediately placed on an unheated roller unit to allow for an even coating of the vial walls. After vials were coated, 41 μL of each compound formulation was added to the filter paper embedded in each vial cap. Each cap was allowed to dry. The vials were loosely capped and allowed to dry for a minimum of four hours in a chemical fume hood.
(§1) Compounds tested were: the C1 racemate, C1 (R) enantiomer, and the C1 (S) enantiomer. For Trial 3, the C1 (R) enantiomer and the C1 (S) enantiomer were further chiral purified to achieve >99% purity.
Ten adult ticks were added to each vial and held at 24° C., 80% humidity with 12-hour light/dark cycles. Adult ticks were assessed for percent mortality at various time points between 2 hours and 48 hours post infestation. Ticks were stimulated on a heated roller unit and evaluated. Ticks showing no movement, or very slow and uncoordinated movement were noted as dead.

[2] = test system: Aedes aegypti; test: In vitro ingestion activity against adult mosquitoes (artificial feeding, bovine blood); conditions: read-out: Mortality % R1 + R2
Protocol: Aedes aegypti (Louisiana Biologicals Inc., New Orleans, La.) eggs were allowed to hatch, close, and age between 3-5 days in an environmental chamber at 26° C., 80% humidity with light/dark cycles.
For mosquito ingestion tests, serial dilutions of the compound stock were performed using DMSO to achieve the desired range for EC50 and EC90 determination. An aliquot of each compound dilution was added to organic bovine blood with a final DMSO concentration of 0.5% and placed in a temperature-controlled artificial feeding container.
as §1
For both contact and ingestion assays, five female Aedes aegypti adults were added to each vial or cage. The test vials for contact assays were held in an environmental chamber at 24° C., 80% humidity with light/dark cycles (12 hours each). The cages for mosquito ingestion assays were held in a temperature-controlled artificial feeding apparatus to allow continual access to organic bovine blood containing the desired concentration of compound. Fresh aliquots of compound-spiked bovine blood were provided daily for the duration of the study.
Assessment of mortality/knockdown was performed at various time points between 30 minutes and 24 hours post infestation. Mosquitoes showing no movement or mosquitoes that were knocked down were noted as dead. Results from trial 1 and trial 2 contact assays are shown in Tables 12 and 13, respectively and the results from trial 3 mosquito ingestion assay is shown in table 14.
For the mosquito contact and ingestion assays, each replicate contained 5 mosquitoes. For ease of calculation, the two replicates were added to equal a total of 10 mosquitoes.

`O=C(CC(F)(F)F)N1CC2(C1)OCc1cc(C3=NSC(c4cc(Cl)c(F)c(Cl)c4)(C(F)(F)F)C3)ccc12` (racemic) [C1 racemate, 1-[6-[5-(3,5-dichloro-4-fluoro-phenyl)-5-(trifluoromethyl)-4H-isothiazol-3-yl]spiro[1H-isobenzofuran-3,3′-azetidine]-1′-yl]-3,3,3-trifluoro-propan-1-one] gave a mortality at 0.006 µM ([1]; 2 h, Rep1) of 0%, a mortality at 0.006 µM ([1]; 2 h, Rep2) of 0% and a mortality at 0.024 µM ([1]; 2 h, Rep1) of 0%. It also gave a mortality at 0.024 µM ([1]; 2 h, Rep2) of 0%, a mortality at 0.098 µM ([1]; 2 h, Rep1) of 0% and a mortality at 0.098 µM ([1]; 2 h, Rep2) of 0%. It also gave a mortality at 0.39 µM ([1]; 2 h, Rep1) of 0%, a mortality at 0.39 µM ([1]; 2 h, Rep2) of 0% and a mortality at 1.56 µM ([1]; 2 h, Rep1) of 0%. It also gave a mortality at 1.56 µM ([1]; 2 h, Rep2) of 0%, a mortality at 6.25 µM ([1]; 2 h, Rep1) of 0% and a mortality at 6.25 µM ([1]; 2 h, Rep2) of 0%. The mortality at 25 µM ([1]; 2 h, Rep1) was 0%, the mortality at 25 µM ([1]; 2 h, Rep2) was 0% and the mortality at 100 µM ([1]; 2 h, Rep1) was 0%. It also gave a mortality at 100 µM ([1]; 2 h, Rep2) of 0%, a mortality at 0.006 µM ([1]; 6 h, Rep1) of 0% and a mortality at 0.006 µM ([1]; 6 h, Rep2) of 0%. It also gave a mortality at 0.024 µM ([1]; 6 h, Rep1) of 0%, a mortality at 0.024 µM ([1]; 6 h, Rep2) of 0% and a mortality at 0.098 µM ([1]; 6 h, Rep1) of 0%. The mortality at 0.098 µM ([1]; 6 h, Rep2) was 0%, the mortality at 0.39 µM ([1]; 6 h, Rep1) was 0% and the mortality at 0.39 µM ([1]; 6 h, Rep2) was 0%. For the same molecule, the mortality at 1.56 µM ([1]; 6 h, Rep1) was 0%, the mortality at 1.56 µM ([1]; 6 h, Rep2) was 0% and the mortality at 6.25 µM ([1]; 6 h, Rep1) was 0%. It also gave a mortality at 6.25 µM ([1]; 6 h, Rep2) of 0%, a mortality at 25 µM ([1]; 6 h, Rep1) of 10% and a mortality at 25 µM ([1]; 6 h, Rep2) of 40%. It also gave a mortality at 100 µM ([1]; 6 h, Rep1) of 100%, a mortality at 100 µM ([1]; 6 h, Rep2) of 50% and a mortality at 0.006 µM ([1]; 12 h, Rep1) of 0%. For the same molecule, the mortality at 0.006 µM ([1]; 12 h, Rep2) was 0%, the mortality at 0.024 µM ([1]; 12 h, Rep1) was 0% and the mortality at 0.024 µM ([1]; 12 h, Rep2) was 0%. For the same molecule, the mortality at 0.098 µM ([1]; 12 h, Rep1) was 0%, the mortality at 0.098 µM ([1]; 12 h, Rep2) was 0% and the mortality at 0.39 µM ([1]; 12 h, Rep1) was 0%. It also gave a mortality at 0.39 µM ([1]; 12 h, Rep2) of 10%, a mortality at 1.56 µM ([1]; 12 h, Rep1) of 0% and a mortality at 1.56 µM ([1]; 12 h, Rep2) of 0%. For the same molecule, the mortality at 6.25 µM ([1]; 12 h, Rep1) was 0%, the mortality at 6.25 µM ([1]; 12 h, Rep2) was 70% and the mortality at 25 µM ([1]; 12 h, Rep1) was 50%. The mortality at 25 µM ([1]; 12 h, Rep2) was 70%, the mortality at 100 µM ([1]; 12 h, Rep1) was 100% and the mortality at 100 µM ([1]; 12 h, Rep2) was 100%. The mortality at 0.006 µM ([1]; 24 h, Rep1) was 0%, the mortality at 0.006 µM ([1]; 24 h, Rep2) was 0% and the mortality at 0.024 µM ([1]; 24 h, Rep1) was 0%. It also gave a mortality at 0.024 µM ([1]; 24 h, Rep2) of 30%, a mortality at 0.098 µM ([1]; 24 h, Rep1) of 0% and a mortality at 0.098 µM ([1]; 24 h, Rep2) of 20%. It also gave a mortality at 0.39 µM ([1]; 24 h, Rep1) of 50%, a mortality at 0.39 µM ([1]; 24 h, Rep2) of 50% and a mortality at 1.56 µM ([1]; 24 h, Rep1) of 10%. The mortality at 1.56 µM ([1]; 24 h, Rep2) was 30%, the mortality at 6.25 µM ([1]; 24 h, Rep1) was 80% and the mortality at 6.25 µM ([1]; 24 h, Rep2) was 100%. It also gave a mortality at 25 µM ([1]; 24 h, Rep1) of 90%, a mortality at 25 µM ([1]; 24 h, Rep2) of 100% and a mortality at 100 µM ([1]; 24 h, Rep1) of 100%. It also gave a mortality at 100 µM ([1]; 24 h, Rep2) of 100%, a mortality at 0.006 µM ([1]; 48 h, Rep1) of 10% and a mortality at 0.006 µM ([1]; 48 h, Rep2) of 0%. The mortality at 0.024 µM ([1]; 48 h, Rep1) was 10%, the mortality at 0.024 µM ([1]; 48 h, Rep2) was 30% and the mortality at 0.098 µM ([1]; 48 h, Rep1) was 0%. It also gave a mortality at 0.098 µM ([1]; 48 h, Rep2) of 60%, a mortality at 0.39 µM ([1]; 48 h, Rep1) of 70% and a mortality at 0.39 µM ([1]; 48 h, Rep2) of 100%. The mortality at 1.56 µM ([1]; 48 h, Rep1) was 90%, the mortality at 1.56 µM ([1]; 48 h, Rep2) was 80% and the mortality at 6.25 µM ([1]; 48 h, Rep1) was 100%. For the same molecule, the mortality at 6.25 µM ([1]; 48 h, Rep2) was 100%, the mortality at 25 µM ([1]; 48 h, Rep1) was 100% and the mortality at 25 µM ([1]; 48 h, Rep2) was 100%. For the same molecule, the mortality at 100 µM ([1]; 48 h, Rep1) was 100%, the mortality at 100 µM ([1]; 48 h, Rep2) was 100% and the mortality at 0.049 ppm ([2]; 24 h) was 71.4%. The mortality at 0.2 ppm ([2]; 24 h) was 100%, the mortality at 0.78 ppm ([2]; 24 h) was 100% and the mortality at 3.125 ppm ([2]; 24 h) was 100%. It also gave a mortality at 12.5 ppm ([2]; 24 h) of 100%, a mortality at 50 ppm ([2]; 24 h) of 100% and a mortality at 0.049 ppm [2] of 0%. It also gave a mortality at 0.2 ppm [2] of 0%, a mortality at 0.78 ppm [2] of 50% and a mortality at 3.125 ppm [2] of 100%. The mortality at 12.5 ppm [2] was 100% and the mortality at 50 ppm [2] was 100%.
